Results: PMC6302903, “Protein and Chemical Determinants of BL-1249 Action and Selectivity for K2P Channels” (ACS Chemical Neuroscience, 2018)

Molecular target: T1, K2P2.1(TREK-1) (Mus musculus, UniProt P97438)
T1 sequence (P97438 1-411 isoform P97438-2): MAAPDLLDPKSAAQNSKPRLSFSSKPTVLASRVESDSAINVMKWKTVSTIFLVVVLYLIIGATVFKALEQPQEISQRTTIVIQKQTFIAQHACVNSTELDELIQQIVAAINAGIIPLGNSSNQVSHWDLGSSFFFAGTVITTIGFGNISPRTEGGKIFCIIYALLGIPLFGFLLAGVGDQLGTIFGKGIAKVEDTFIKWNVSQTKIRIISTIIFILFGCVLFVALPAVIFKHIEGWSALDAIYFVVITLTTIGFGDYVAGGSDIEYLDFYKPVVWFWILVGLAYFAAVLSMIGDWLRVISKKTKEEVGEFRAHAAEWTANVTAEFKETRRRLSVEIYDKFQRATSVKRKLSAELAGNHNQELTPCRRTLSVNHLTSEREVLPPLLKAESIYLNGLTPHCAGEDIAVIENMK
Assay: TEVC of K2P2.1(TREK-1) in Xenopus oocytes
Type: cell-based
Set-up: expressed in transfected cells; host or cells: Xenopus laevis oocytes injected with mRNA made from pGEMHE/pMO
Description: Constructs for murine K2P channels, including K2P2.1(TREK-1) (Gene ID 16526), K2P10.1(TREK-2) (Gene ID 72258), K2P4.1(TRAAK) (Gene ID 16528), K2P5.1(TASK-2) (Gene ID 16529), K2P3.1(TASK-1) (Gene ID 16527), K2P9.1(TASK-3) (Gene ID 223604), and K2P18.1(TRESK) (Gene ID 332396) in pGEMHE/pMO, were used for Xenopus oocyte experiments as previously described.[10],[26] Murine K2P2.1(TREK-1) (Gene ID 16526) was expressed in HEK-293 cells using a pIRES-EGFP construct as previously described.[26] Murine K2P13.1(THIK-1) (Gene ID 217826) and K2P1.1(TWIK-1) (Gene ID 16525) were cloned into pGEMHE/pMO for use in Xenopus oocytes. Chimeras were designed using EMBOSS Needle pairwise sequence alignment tool[58] to match homologous helices in K2P2.1(TREK-1) and K2P4.1(TRAAK) and were assembled using the Gibson assembly method.[59] Chimera boundaries are Thr152 (TREK-1/AAK M2-C), Trp199 (TREK-1/AAK M3-C), Y272 (TREK-1/AAK M4-C), Thr114 (TRAAK/EK-1 M2-C), Trp161 (TRAAK/EK-1 M3-C), and Tyr234 K2P4.1(TRAAK). All sequences were verified using DNA sequencing.
Xenopus laevis oocytes were harvested in accordance with UCSF IACUC protocol AN129690 and digested in calcium-free ND-96 (96 mM NaCl, 2 mM KCl, 3.8 mM MgCl2) immediately following harvest, as previously described.[6],[10] Digested oocytes were maintained in standard ND96 (96 mM NaCl, 2 mM KCl, 1.8 mM CaCl2, 2 mM MgCl2) with antibiotics (100 units mL^–1 penicillin, 100 μg mL^–1 streptomycin, 50 μg mL^–1 gentimycin). Defolliculated stage V–VI oocytes were injected with 0.2–6.0 ng of mRNA in 50 nL, and currents were recorded 24–48 h after injection. mRNA was synthesized from plasmid DNA using mMessage mMachine Kit (T7 promoter, Ambion, Life Technologies) and purified using RNEasy Kit (Qiagen). Injected oocytes were impaled with two standard microelectrodes (0.2–1.0 MΩ) filled with 3 M KCl and subjected to constant perfusion of standard ND96 during recording. Currents were amplified using the GeneClamp 500B (MDS Analytical Technologies) amplifier controlled by the pClamp software (Molecular Devices). Data were digitized at 1 kHz using Digidata 1332A (MDS Analytical Technologies). For all experiments with small molecules, basal currents were evoked using 1 s long ramps from −150 to +50 mV under constant perfusion of ND96. Once stabilized basal currents were recorded, compounds were perfused at various concentrations in standard ND96 and currents were allowed to increase to stabilization before recording final current. Fold activation upon compound application is expressed as I/I0 (0 mV), derived from the current at 0 mV in the presence of compound divided by the basal current at 0 mV in standard ND96 without compound. Data were analyzed and plotted using Graphpad Prism Version 5 (GraphPad Software, San Diego California USA, www.graphpad.com). […] In the case of BL-1249-acid EC50 estimation, upper bound of I/I0 was set to 20 to account for the strong stimulation of BL-1249-acid.

| K2P2.1(TREK-1) current response (extracellular application of 10 μM) | EC50 (extracellular application, fold activation I/I0 at 0 mV) | Compound | effect on K2P2.1(TREK-1) current (in words) (dose-response) |
| --- | --- | --- | --- |
|  |  | CS(=O)(=O)Nc1ccc(C(=O)NCc2ccc(Cl)cc2Cl)cc1 [ML335] | robustly responded |
| clear activation responses | 5.5 ± 1.2 µM | c1ccc(-c2nnn[nH]2)c(Nc2cccc3c2CCCC3)c1 [BL-1249, (5,6,7,8-tetrahydro-naphthalen-1-yl)-[2-(1H-tetrazol-5-yl)-phenyl]-amine] |  |
